The text below walks through data of ChEMBL document CHEMBL3639063, “Heterocyclic compounds containing a pyrrolopyridine or benzimidazole core” (2015).

In the assay the target is Ribosomal protein S6 kinase alpha-3 (Homo sapiens, UniProt P51812). Briefly: Kinase Glo Assay: Human RSK2 protein, purchased from Invitrogen, is used to measure kinase activity utilizing Kinase Glo Plus (Promega) a homogeneous assay technology, which uses a luciferin-luciferase based ATP detection reagent to quantify residual ATP. The assay is performed using 0.75 nM His-RSK2, 0.75 uM ATP and 1.0 uM S6 Kinase/RSK Substrate Peptide 1 (Upstate, catalog #12-124), in assay buffer consisting of 25 mM HEPES, pH 7.5, 10 mM MgCl2, 5 mM MnCl2, 50 mM KCl, 0.2% BSA, 0.01% CHAPS, 100 uM Na3VO4, 0.5 mM DTT, and 1% DMSO. Solutions of test compounds at various concentrations are prepared by 1:3 fold serial dilution of a 1 mM solution of compound in DMSO. The DMSO solutions are further diluted with assay buffer to a final concentration of DMSO of 5%.The assay is performed in a 384 well, white, non-binding plate (Corning, catalogue #3574). Solutions of test compounds (10 uL) are transferred to a dry assay plate, followed by addition of 20 uL kinase. A general note: In Kinase-Glo more light means more ATP remaining.
Ribosomal protein S6 kinase alpha-3, sequence (P51812 whole entry): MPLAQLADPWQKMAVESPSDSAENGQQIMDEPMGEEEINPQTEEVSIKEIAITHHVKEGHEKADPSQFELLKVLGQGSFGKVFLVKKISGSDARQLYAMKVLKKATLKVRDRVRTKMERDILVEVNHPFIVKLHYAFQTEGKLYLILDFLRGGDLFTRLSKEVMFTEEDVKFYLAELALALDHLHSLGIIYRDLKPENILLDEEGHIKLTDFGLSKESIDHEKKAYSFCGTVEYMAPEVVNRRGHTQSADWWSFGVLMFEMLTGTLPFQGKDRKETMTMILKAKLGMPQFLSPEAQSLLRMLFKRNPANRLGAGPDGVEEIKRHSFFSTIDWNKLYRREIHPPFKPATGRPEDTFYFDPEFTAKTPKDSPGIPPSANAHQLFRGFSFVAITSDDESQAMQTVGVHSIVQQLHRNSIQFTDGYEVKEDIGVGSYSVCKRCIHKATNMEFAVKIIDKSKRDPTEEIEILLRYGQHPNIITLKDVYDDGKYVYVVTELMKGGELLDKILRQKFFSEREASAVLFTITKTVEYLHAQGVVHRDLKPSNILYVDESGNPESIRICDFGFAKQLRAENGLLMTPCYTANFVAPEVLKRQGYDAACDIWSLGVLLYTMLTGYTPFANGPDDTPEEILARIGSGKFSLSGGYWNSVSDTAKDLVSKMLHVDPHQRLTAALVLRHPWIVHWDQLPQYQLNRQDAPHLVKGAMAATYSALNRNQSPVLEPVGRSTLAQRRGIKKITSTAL

As for `CC1(C)CNC(=O)c2cc3ccc(C(=O)Nc4cc(C(C)(C)C)on4)nc3n2C1`, the IC50 came out at 175 nM. Next, `O=C(Nc1cccc(-c2c[nH]cn2)c1)c1ccc2cc3n(c2n1)CCCNC3=O`: 17 nM.

Broadly, the IC50 is the concentration that gives 50% inhibition.
